From PubChem BioAssay AID1963958 (Molecular Pharmacology Branch, DTP, NCI, 2024)
Values belong to the molecule of their own block, whether it stands above or below them.

Tested on: MDA-MB-231 multicell spheroids, viability
Assay: Anticancer human tumor MDA-MB-231 cell line growth inhibition [PI3K];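 further: spheroids exposed to agents for seven days before reading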;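 on viability, T/C: percent of vehicle control luminescence with DMSO treated spheroids as 100%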
Details: for viability, T/C: stronger effect = lower value
Text: Combinatorial screen of targeted agents with the PI3K inhibitors inavolisib, alpelisib, duvelisib, and copanlisib in multi-cell type tumor spheroids
A high-throughput screen of multi-cell type tumor spheroids was designed to identify active combinations of targeted small molecules and PI3K pathway inhibitors. Complex spheroids include a stromal component modeled by human endothelial cells (HUVEC) and fibroblasts modeled by human mesenchymal stem cells (MSCs). The concentration ranges selected for each drug and investigational agent were based upon clinically achievable concentrations if the clinical Cmax of the agent was known.
Compounds. The drugs and investigational agents: inavolisib (NSC800729), alpelisib (NSC765974), duvelisib (NSC772469), copanlisib (NSC816437), ipatasertib (NSC767898), afuresertib (NSC778305), talazoparib (NSC767125), sapanisertib (NSC764658), selumetinib (NSC741078), tovorafenib (DAY101, NSC766906), vemurafenib (NSC761431), ravoxertinib (NSC781343), sotorasib (NSC818433), MRTX1133 (NSC 836407), abemaciclib (NSC 768073), palbociclib (NSC758247), venetoclax (NSC 766270), SY5609 (NSC837396), enzalutamide (NSC755605), and darolutamide (NSC825331), were obtained from the National Cancer Institute (NCI) Developmental Therapeutics Program Chemical Repository. The FDA-approved anticancer drug set is available from the NCI Developmental Therapeutics Program. […] The stock solutions were prepared in dimethyl sulfoxide (DMSO, Sigma-Aldrich, St. Louis, MO, cat. D2650) at 800-fold the tested concentration and stored at -70 degrees C prior to their use. All drugs and investigational agents were tested over a range starting from a high concentration at or near the clinical Cmax and decreasing in half-log increments. If the clinical Cmax for an agent had not been determined, the highest concentration tested was 10 microM.
Cell Culture. All cells were maintained in an incubator at 37 degrees C and 5% CO2 with 95% humidity. The PDC lines were cultured according to standard operating procedures established by the NCI PDMR (https://pdmr.cancer.gov/sops/default.htm). All PDCs were thawed and cultured in Matrigel-coated flasks prepared with a working solution of 1X Ham's F-12 nutrient mix, without supplementation (Invitrogen, Waltham, MA, cat. 11765054), 100 U/mL penicillin-streptomycin (Invitrogen, cat. 15140122), and 2.5% Matrigel (Corning Inc., Corning, NY, cat. 354248) for the first three passages. The 354836-022-R-J1-PDC, 475296-252-R-J1-PDC, and 997726-040-R-J2-PDC lines were cultured in 6A media, which includes advanced DMEM/F-12 (Thermo Fisher Scientific, cat. 12634028), 10 mM HEPES (Thermo Fisher Scientific, cat. 15630080), 1X GlutaMAX supplement (Thermo Fisher Scientific, cat. 35050061), 0.1 mg/mL primocin (InvivoGen, San Diego, CA, cat. ant-pm-2), 10% defined fetal bovine serum, heat inactivated (HyClone Laboratories Inc., Logan, UT, cat. SH30070.03HI), 50% L-WRN conditioned media (ATCC, cat. CRL-3276), 1.25 mM N-Acetyl-L-cysteine (Sigma-Aldrich, cat. A9165), 10 mM nicotinamide (Sigma-Aldrich, cat. N0636), 1X B-27 supplement (Thermo Fisher Scientific, cat. 17504044), 1X N-2 supplement (Thermo Fisher Scientific, cat. 17502048), and 10 microM Y-27632 dihydrochloride (Tocris Bioscience, Bristol, United Kingdom, cat. 1254). The 624824-186-R-J2-PDC line was cultured in 6C/Colon 1B media, which includes all 6A media components plus 50 ng/mL human EGF recombinant protein (Thermo Fisher Scientific, cat. PHG0311). […]

[1] = curve of first compound, second compound 0.00316 µM
[2] = curve of first compound, second compound 0.01 µM
[3] = curve of first compound, second compound 0.0316 µM
[4] = curve of first compound, second compound 0.1 µM
[5] = curve of first compound, second compound 0.316 µM
[6] = curve of first compound, second compound 1 µM

IC50 (curve of compound): > 10 µM
Structure (SMILES): C#Cc1c(F)ccc2cc(O)cc(-c3ncc4c(N5CC6CCC(C5)N6)nc(OCC56CCCN5CC(F)C6)nc4c3F)c12 (configuration not stated)
viability, T/C (compound 0.0316 µM): 110% [middle of 4 runs]
viability, T/C (compound 0.1 µM): 104% [middle of 4 runs]
viability, T/C (compound 0.316 µM): 100% [middle of 4 runs]
viability, T/C (compound 1 µM): 98.5% [middle of 4 runs]
viability, T/C (compound 10 µM): 59.5% [middle of 4 runs]

IC50 (curve of compound): 3.47 µM [middle of 4 runs]
Structure (SMILES): Cn1ncc(Cl)c1-c1cc(C(=O)NC(CN)Cc2cccc(F)c2)sc1Cl (configuration not stated)
viability, T/C (compound 0.0316 µM): 111% [middle of 4 runs]
viability, T/C (compound 0.1 µM): 99.8% [middle of 4 runs]
viability, T/C (compound 0.316 µM): 95.8% [middle of 4 runs]
viability, T/C (compound 1 µM): 77.2% [middle of 4 runs]
viability, T/C (compound 3.16 µM): 52.5% [middle of 4 runs]
viability, T/C (compound 10 µM): 28.8% [middle of 4 runs]

IC50 [1]: > 10 µM
IC50 [2]: > 10 µM
IC50 [3]: > 10 µM
IC50 [4]: > 10 µM
IC50 [5]: > 10 µM
IC50 [6]: > 10 µM
Structure (SMILES): CNC(=O)c1ccc(N2C(=S)N(c3ccc(C#N)c(C(F)(F)F)c3)C(=O)C2(C)C)cc1F + CC(Nc1ccc2c(c1)OCCn1cc(N3C(=O)OCC3C(F)F)nc1-2)C(N)=O
viability, T/C (second compound 0.00316 µM, first compound 0.0316 µM): 104%
viability, T/C (second compound 0.00316 µM, first compound 0.1 µM): 97.8%
viability, T/C (second compound 0.00316 µM, first compound 0.316 µM): 103%
viability, T/C (second compound 0.00316 µM, first compound 1 µM): 98%
viability, T/C (second compound 0.00316 µM, first compound 3.16 µM): 103%
viability, T/C (second compound 0.00316 µM, first compound 10 µM): 76.6%
viability, T/C (second compound 0.01 µM, first compound 0.0316 µM): 87.4%
viability, T/C (second compound 0.01 µM, first compound 0.1 µM): 98%
viability, T/C (second compound 0.01 µM, first compound 0.316 µM): 86.6%
viability, T/C (second compound 0.01 µM, first compound 1 µM): 96%
viability, T/C (second compound 0.01 µM, first compound 3.16 µM): 79.5%
viability, T/C (second compound 0.01 µM, first compound 10 µM): 73%
viability, T/C (second compound 0.0316 µM, first compound 0.0316 µM): 75.6%
viability, T/C (second compound 0.0316 µM, first compound 0.1 µM): 82.5%
viability, T/C (second compound 0.0316 µM, first compound 0.316 µM): 75%
viability, T/C (second compound 0.0316 µM, first compound 1 µM): 77.5%
viability, T/C (second compound 0.0316 µM, first compound 3.16 µM): 77.2%
viability, T/C (second compound 0.0316 µM, first compound 10 µM): 60.8%
viability, T/C (second compound 0.1 µM, first compound 0.0316 µM): 72.8%
viability, T/C (second compound 0.1 µM, first compound 0.1 µM): 71.8%
viability, T/C (second compound 0.1 µM, first compound 0.316 µM): 70.7%
viability, T/C (second compound 0.1 µM, first compound 1 µM): 67.2%
viability, T/C (second compound 0.1 µM, first compound 3.16 µM): 64%
viability, T/C (second compound 0.1 µM, first compound 10 µM): 52.5%
viability, T/C (second compound 0.316 µM, first compound 0.0316 µM): 65.1%
viability, T/C (second compound 0.316 µM, first compound 0.1 µM): 66.2%
viability, T/C (second compound 0.316 µM, first compound 0.316 µM): 62.2%
viability, T/C (second compound 0.316 µM, first compound 1 µM): 66.7%
viability, T/C (second compound 0.316 µM, first compound 3.16 µM): 64.7%
viability, T/C (second compound 0.316 µM, first compound 10 µM): 52.2%
viability, T/C (second compound 1 µM, first compound 0.0316 µM): 55.7%
viability, T/C (second compound 1 µM, first compound 0.1 µM): 62.4%
viability, T/C (second compound 1 µM, first compound 0.316 µM): 62.3%
viability, T/C (second compound 1 µM, first compound 1 µM): 60.4%
viability, T/C (second compound 1 µM, first compound 3.16 µM): 58.5%
viability, T/C (second compound 1 µM, first compound 10 µM): 47.4%

IC50 [1]: 0.674 µM
IC50 [2]: 1.1 µM
IC50 [3]: 0.0341 µM
IC50 [4]: < 0.00949 µM
IC50 [5]: < 0.00949 µM
IC50 [6]: < 0.00949 µM
Structure (SMILES): Cn1cnc2c(F)c(Nc3ccc(Br)cc3Cl)c(C(=O)NOCCO)cc21 + CC(Nc1ccc2c(c1)OCCn1cc(N3C(=O)OCC3C(F)F)nc1-2)C(N)=O
viability, T/C (second compound 0.00316 µM, first compound 0.00949 µM): 67.7%
viability, T/C (second compound 0.00316 µM, first compound 0.03 µM): 60%
viability, T/C (second compound 0.00316 µM, first compound 0.0949 µM): 58.2%
viability, T/C (second compound 0.00316 µM, first compound 0.3 µM): 56.2%
viability, T/C (second compound 0.00316 µM, first compound 0.949 µM): 49.4%
viability, T/C (second compound 0.00316 µM, first compound 3 µM): 32%
viability, T/C (second compound 0.01 µM, first compound 0.00949 µM): 56.8%
viability, T/C (second compound 0.01 µM, first compound 0.03 µM): 56.2%
viability, T/C (second compound 0.01 µM, first compound 0.0949 µM): 54.3%
viability, T/C (second compound 0.01 µM, first compound 0.3 µM): 53.9%
viability, T/C (second compound 0.01 µM, first compound 0.949 µM): 53%
viability, T/C (second compound 0.01 µM, first compound 3 µM): 30.8%
viability, T/C (second compound 0.0316 µM, first compound 0.00949 µM): 56.1%
viability, T/C (second compound 0.0316 µM, first compound 0.03 µM): 48.1%
viability, T/C (second compound 0.0316 µM, first compound 0.0949 µM): 46.1%
viability, T/C (second compound 0.0316 µM, first compound 0.3 µM): 44.8%
viability, T/C (second compound 0.0316 µM, first compound 0.949 µM): 43.2%
viability, T/C (second compound 0.0316 µM, first compound 3 µM): 23%
viability, T/C (second compound 0.1 µM, first compound 0.00949 µM): 50.9%
viability, T/C (second compound 0.1 µM, first compound 0.03 µM): 41.7%
viability, T/C (second compound 0.1 µM, first compound 0.0949 µM): 44%
viability, T/C (second compound 0.1 µM, first compound 0.3 µM): 42.1%
viability, T/C (second compound 0.1 µM, first compound 0.949 µM): 36.3%
viability, T/C (second compound 0.1 µM, first compound 3 µM): 16.7%
viability, T/C (second compound 0.316 µM, first compound 0.00949 µM): 42.5%
viability, T/C (second compound 0.316 µM, first compound 0.03 µM): 42%
viability, T/C (second compound 0.316 µM, first compound 0.0949 µM): 40.5%
viability, T/C (second compound 0.316 µM, first compound 0.3 µM): 39.8%
viability, T/C (second compound 0.316 µM, first compound 0.949 µM): 33.4%
viability, T/C (second compound 0.316 µM, first compound 3 µM): 15.4%
viability, T/C (second compound 1 µM, first compound 0.00949 µM): 41.1%
viability, T/C (second compound 1 µM, first compound 0.03 µM): 35.1%
viability, T/C (second compound 1 µM, first compound 0.0949 µM): 38.4%
viability, T/C (second compound 1 µM, first compound 0.3 µM): 37.7%
viability, T/C (second compound 1 µM, first compound 0.949 µM): 33.9%
viability, T/C (second compound 1 µM, first compound 3 µM): 15.3%
